Assay results from ChEMBL document CHEMBL1130786, “Sulfonamide-based hydroxamic acids as potent inhibitors of mouse macrophage metalloelastase” (Bioorg Med Chem Lett, 1998).

Key:
[1] = target: Macrophage metalloelastase (Mus musculus, UniProt P34960); assay: Inhibitory activity against mouse macrophage metalloelastase (MME) using [3H]elastin as a substrate
[2] = target: Macrophage metalloelastase (Mus musculus) (UniProt P34960); assay: Inhibitory activity against mouse macrophage metalloelastase (MME) at 100 nM concentration using [3H]elastin as a substrate
Sequence of Macrophage metalloelastase (Mus musculus) (P34960 110-473 limits assumed): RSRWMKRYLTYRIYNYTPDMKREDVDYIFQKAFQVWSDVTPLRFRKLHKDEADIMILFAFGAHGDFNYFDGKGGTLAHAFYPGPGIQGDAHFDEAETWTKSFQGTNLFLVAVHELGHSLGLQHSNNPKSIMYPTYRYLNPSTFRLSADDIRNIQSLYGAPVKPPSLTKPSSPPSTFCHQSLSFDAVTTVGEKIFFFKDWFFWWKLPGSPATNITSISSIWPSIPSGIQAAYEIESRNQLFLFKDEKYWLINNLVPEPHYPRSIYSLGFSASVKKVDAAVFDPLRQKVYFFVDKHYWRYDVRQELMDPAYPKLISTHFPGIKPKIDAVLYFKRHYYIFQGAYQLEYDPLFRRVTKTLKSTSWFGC

[3] = target: Macrophage metalloelastase (Mus musculus) (UniProt P34960); assay: Inhibitory activity against mouse macrophage metalloelastase (MME) using [3H]elastin as a substrate; NI means no inhibition at 100 nM concentration

Sequence of Macrophage metalloelastase (P34960 whole entry): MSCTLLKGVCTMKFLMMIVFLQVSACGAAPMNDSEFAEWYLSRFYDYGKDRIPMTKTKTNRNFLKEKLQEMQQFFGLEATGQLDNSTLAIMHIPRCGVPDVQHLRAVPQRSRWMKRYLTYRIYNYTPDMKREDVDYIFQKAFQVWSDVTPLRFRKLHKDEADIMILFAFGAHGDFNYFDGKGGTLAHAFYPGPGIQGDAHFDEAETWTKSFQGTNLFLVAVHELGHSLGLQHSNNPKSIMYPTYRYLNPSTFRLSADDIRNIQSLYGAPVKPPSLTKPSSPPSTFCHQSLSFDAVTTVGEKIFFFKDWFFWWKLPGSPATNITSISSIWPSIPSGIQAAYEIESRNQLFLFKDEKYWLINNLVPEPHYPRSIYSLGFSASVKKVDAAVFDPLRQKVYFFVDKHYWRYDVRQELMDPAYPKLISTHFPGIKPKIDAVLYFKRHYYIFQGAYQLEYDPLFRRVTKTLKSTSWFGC

| IC50 [1] [nM] | inhibition [2] [%] | SMILES | further results |
| --- | --- | --- | --- |
| 67 | – | COc1ccc(S(=O)(=O)N(Cc2ccccc2)[C@H](CCCCNC(=O)Oc2ccccc2)C(=O)NO)cc1 | – |
| – | 83 | COc1ccc(S(=O)(=O)N(CCCCc2ccccc2)CC(=O)NO)cc1 | – |
| 13 | – | COc1ccc(S(=O)(=O)N(Cc2ccccc2)C(C)C(=O)NO)cc1 (stereo not given) | – |
| > 100 | – | COc1ccc(S(=O)(=O)N(Cc2ccccc2)[C@@H](C(=O)NO)C2CCNCC2)cc1 | – |
| 15 | – | COc1ccc(S(=O)(=O)N(Cc2ccccc2)[C@@H](C(=O)NO)C2CCCC2)cc1 | – |
| 13 | – | COc1ccc(S(=O)(=O)N(Cc2ccccc2)[C@H](CC(C)C)C(=O)NO)cc1 | – |
| – | 82 | COc1ccc(S(=O)(=O)N(CC(=O)NO)Cc2ccc(C)cc2)cc1 | – |
| 37 | – | COc1ccc(S(=O)(=O)N(Cc2ccccn2)[C@H](C(=O)NO)C(C)C)cc1 | – |
| – | 35 | CCC(C)N(CC(=O)NO)S(=O)(=O)c1ccc(OC)cc1 (stereo not given) | – |
| – | 92 | COc1ccc(S(=O)(=O)N(CC(=O)NO)Cc2ccncc2)cc1 | – |
| – | 80 | COc1ccc(S(=O)(=O)N(CC(=O)NO)Cc2cccnc2)cc1 | – |
| – | 11 | COc1ccc(S(=O)(=O)N(CCC(C)C)CC(=O)NO)cc1 | – |
| – | 88 | COc1ccc(S(=O)(=O)N(CC(=O)NO)Cc2ccccn2)cc1 | – |
| 7.7 | – | COc1ccc(S(=O)(=O)N(Cc2cccnc2)[C@@H](C(=O)NO)C(C)C)cc1 [CGS-27023A] | – |
| 6 | – | COc1ccc(S(=O)(=O)N(Cc2ccccn2)[C@@H](C(=O)NO)C(C)C)cc1 | – |
| – | 76 | COc1ccc(S(=O)(=O)N(CC(=O)NO)Cc2ccc(Cl)cc2)cc1 | – |
| 4.9 | – | COc1ccc(S(=O)(=O)N(Cc2ccccc2)[C@@H](C(=O)NO)C(C)C)cc1 | – |
| 16 | – | CC[C@H](C)C[C@H](C(=O)NO)N(Cc1ccccc1)S(=O)(=O)c1ccc(OC)cc1 | – |
| 31 | – | COc1ccc(S(=O)(=O)N(Cc2ccccc2)[C@@H](C(=O)NO)c2ccccc2)cc1 | – |

| IC50 [1] [nM] | inhibition [2] [%] | SMILES | further results |
| --- | --- | --- | --- |
| – | 0 | COc1ccc(S(=O)(=O)N(CC(=O)NO)C(C)C)cc1 | – |
| 4.8 | – | CC[C@@H](C)C[C@H](C(=O)NO)N(Cc1ccccc1)S(=O)(=O)c1ccc(OC)cc1 | – |
| – | 88 | COc1ccc(S(=O)(=O)N(CCc2ccccc2)CC(=O)NO)cc1 | – |
| – | 13 | COc1ccc(S(=O)(=O)N(CC(=O)NO)C2CCCCC2)cc1 | – |
| – | – | COc1ccc(S(=O)(=O)N(Cc2cccnc2)[C@@H](C(=O)NOCc2ccccc2)C(C)C)cc1 | inhibition [3]: No inhibition |
| – | 89 | COc1ccc(CN(CC(=O)NO)S(=O)(=O)c2ccc(OC)cc2)cc1 | – |
| 6.9 | – | COc1ccc(S(=O)(=O)N(Cc2ccccn2)[C@H](CC(C)C)C(=O)NO)cc1 | – |
| – | 75 | COc1ccc(S(=O)(=O)N(CC(=O)NO)Cc2cccc(OC)c2)cc1 | – |
| 9.6 | – | COc1ccc(S(=O)(=O)N(Cc2ccccc2)[C@H](C)C(=O)NO)cc1 | – |
| – | 86 | COc1ccc(S(=O)(=O)N(CC(=O)NO)Cc2ccc(-c3ccccc3)cc2)cc1 | – |
| – | 79 | COc1ccc(S(=O)(=O)N(CCC2CCCCC2)CC(=O)NO)cc1 | – |
| – | 70 | COc1ccc(S(=O)(=O)N(CC(=O)NO)CC(C)C)cc1 | – |
| – | 77 | COc1ccc(S(=O)(=O)N(CC(=O)NO)CC2CCCCC2)cc1 | – |
| 16 | – | COc1ccc(S(=O)(=O)N(Cc2ccccc2)C(C(=O)NO)C(C)C)cc1 (stereo not given) | – |
| – | 74 | COc1ccc(S(=O)(=O)N(CC(=O)NO)Cc2ccccc2)cc1 | – |
| 35 | – | COc1ccc(S(=O)(=O)N(Cc2ccccc2)[C@@H](C)C(=O)NO)cc1 | – |
| – | – | COc1ccc(S(=O)(=O)N(Cc2cccnc2)[C@@H](C(=O)O)C(C)C)cc1 | inhibition [3]: No inhibition |
| – | 50 | COc1ccc(S(=O)(=O)N(CC(=O)NO)Cc2ccc3ccccc3n2)cc1 | – |
| – | 0 | COc1ccc(S(=O)(=O)NCC(=O)NO)cc1 | – |

| SMILES | IC50 [1] [nM] | inhibition [2] [%] | further results |
| --- | --- | --- | --- |
| CC(C)CN(CC(=O)NO)S(=O)(=O)c1ccccc1 | – | 27 | – |
| Cc1ccc(S(=O)(=O)N(CC(=O)NO)CC(C)C)cc1 | – | 56 | – |
| CC(C)CN(CC(=O)NO)S(=O)(=O)c1ccc(Cl)cc1 | – | 68 | – |
| CCOCCOc1ccc(S(=O)(=O)N(CC(=O)NO)CC(C)C)cc1 | – | 69 | – |
| CC(C)CN(CC(=O)NO)S(=O)(=O)c1ccc(N(C)C)cc1 | – | 34 | – |
| CC(C)CN(CC(=O)NO)S(=O)(=O)c1ccc(N)cc1 | – | 22 | – |
| CC(C)CN(CC(=O)NO)S(=O)(=O)c1ccc(F)cc1 | – | 22 | – |
